Tested on: T47D
Experiment: Compound was tested for growth inhibition against T-47D-Y cells at 10e-4 M
Assay type: functional
Details: Homo sapiens

Question: For `C1#CCO[C@H]2CCCC[C@@H]2C#C/C=C\1`, which inhibition at 100 µM is on record?
Answer: 83%

— ChEMBL document CHEMBL1153659, “Target directed enediyne prodrugs: hER and AhR degradation by a synthetic oxo-enediyne” (1996)
